The values below come from PubChem BioAssay (NCI).

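Method: 48-hour compound exposure of cells in 96-well plates, five concentrations, linear interpolation of endpoints. Here, GI50 denotes the concentration required for 50% inhibition of growth. The concentration for full growth arrest is given as TGI.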

Among the test systems are A498 renal; HL-60(TB) leukemia; HT29 colon; MDA-MB-435; OVCAR-8 ovarian; RPMI-8226 leukemia; SF-295 CNS; SNB-19 CNS; UO-31 renal; MOLT-4 leukemia; DU-145 prostate.
What all share (experiment): NCI-60 cell line screen, 48 h

`Cc1nc2c(=S)[nH]ncc2[nH]1`: the TGI with A498 renal, in the test on HL-60(TB) leukemia, in the test on HT29 colon, in the test with MDA-MB-435, with OVCAR-8 ovarian and in the test on RPMI-8226 leukemia was greater than 100 µM throughout. Also, the TGI in the test with SF-295 CNS, in the test on SNB-19 CNS and in the test on UO-31 renal was greater than 100 µM in each case.

For `FC(F)(F)c1ccc(-c2nc(-c3nc4cc(Cl)c(Cl)cc4[nH]3)c3ccccn23)cc1`, the GI50 is 4.58 µM in the test with A498 renal; greater than 100 µM with HL-60(TB) leukemia; greater than 100 µM with MOLT-4 leukemia; 6.61 µM with OVCAR-8 ovarian; greater than 100 µM in the test on RPMI-8226 leukemia; 3.9 µM in the test with SF-295 CNS. Further, in the test on SNB-19 CNS, the GI50 was 6.88 µM. Also, the TGI with A498 renal was 79.1 µM; with HL-60(TB) leukemia, greater than 100 µM; in the test with MOLT-4 leukemia, greater than 100 µM; in the test with OVCAR-8 ovarian, greater than 100 µM; in the test on RPMI-8226 leukemia it was greater than 100 µM; in the test with SF-295 CNS, greater than 100 µM. The compound also returned a TGI with SNB-19 CNS greater than 100 µM.

For the compound `CN(C)CC(/C(Cc1ccccc1)=N\NC(=O)C[n+]1ccccc1)c1ccccc1` (centres undefined), the TGI in the test with A498 renal, in the test with HL-60(TB) leukemia, in the test on HT29 colon, with MOLT-4 leukemia, in the test with OVCAR-8 ovarian and in the test on SF-295 CNS was greater than 100 µM each time. Besides, the TGI with SNB-19 CNS and in the test on UO-31 renal was greater than 100 µM each time.

Turning to `[O-]/[N+](=C\c1ccccc1)[C@H](COCc1ccccc1)c1ccccc1`, the TGI was greater than 100 µM in the test with A498 renal; 62.1 µM in the test with HL-60(TB) leukemia; greater than 100 µM with HT29 colon; greater than 100 µM in the test on MOLT-4 leukemia; greater than 100 µM in the test with OVCAR-8 ovarian; greater than 100 µM in the test on RPMI-8226 leukemia. In addition, the TGI with SF-295 CNS, in the test on SNB-19 CNS and in the test on UO-31 renal was greater than 100 µM throughout.

For the compound `C1=C(c2ccccc2)CN(c2ccccc2)OC1`, the TGI in the test on HL-60(TB) leukemia, with HT29 colon, in the test on MOLT-4 leukemia, in the test on RPMI-8226 leukemia, with SNB-19 CNS and in the test on UO-31 renal was greater than 100 µM in each case.

Regarding `Cc1ccc(S(=O)(=O)N/N=C/c2oc(-c3cccc([N+](=O)[O-])c3)c(-c3cccc([N+](=O)[O-])c3)c2[N+](=O)[O-])cc1`, the TGI in the test with A498 renal is greater than 100 µM; in the test with DU-145 prostate it was greater than 100 µM; in the test with HL-60(TB) leukemia, 57.1 µM; with HT29 colon, greater than 100 µM; with MOLT-4 leukemia it was 77.9 µM; in the test on OVCAR-8 ovarian, greater than 100 µM. Further, the TGI with RPMI-8226 leukemia is 67.1 µM; in the test on SF-295 CNS, greater than 100 µM; with SNB-19 CNS, greater than 100 µM; in the test on UO-31 renal, 32.3 µM.

With `CC(=O)OCC1OC(Nc2[nH]c(=O)n(C)c(=O)c2-c2csc(N)n2)C(OC(C)=O)C(OC(C)=O)C1OC(C)=O` (centres undefined), the TGI in the test with A498 renal, in the test with HL-60(TB) leukemia, in the test with HT29 colon, with MOLT-4 leukemia, in the test on OVCAR-8 ovarian and in the test with RPMI-8226 leukemia was greater than 100 µM in each case. In addition, the TGI in the test with SF-295 CNS, with SNB-19 CNS and with UO-31 renal was greater than 100 µM each time.

Regarding `COc1ccc(-c2nc(N)c(C#N)c3c2CCS(=O)(=O)c2ccc(C)cc2-3)cc1OC`, the TGI in the test with A498 renal was 62.5 µM; in the test on DU-145 prostate it was greater than 100 µM; in the test on HT29 colon, 92.2 µM; in the test on MDA-MB-435, 91.6 µM; in the test on OVCAR-8 ovarian it was greater than 100 µM; with SNB-19 CNS, greater than 100 µM. Also, the TGI in the test on UO-31 renal was greater than 100 µM.

Turning to `O=c1c2ccccc2oc2nc3n(c(=O)c12)CCCS3`, the TGI in the test with A498 renal, in the test with DU-145 prostate, with MDA-MB-435, in the test with MOLT-4 leukemia, in the test on OVCAR-8 ovarian and in the test with RPMI-8226 leukemia was greater than 100 µM throughout. Further, the TGI in the test on SF-295 CNS was greater than 100 µM; in the test with SNB-19 CNS, greater than 100 µM; in the test with UO-31 renal it was 29.2 µM.

Turning to `CCN(CC)CCNC(=O)c1ccccc1NC(=O)C(=O)Nc1ccccc1C(=O)NCCN(CC)CC`, the TGI with A498 renal was greater than 100 µM; in the test with HL-60(TB) leukemia it was 32.4 µM; in the test on HT29 colon it was greater than 100 µM; with MOLT-4 leukemia, 74.4 µM; with OVCAR-8 ovarian it was greater than 100 µM; in the test with RPMI-8226 leukemia it was greater than 100 µM. Also, the TGI with SF-295 CNS, with SNB-19 CNS and with UO-31 renal was greater than 100 µM throughout.

As for `Cc1ccc(C2CC(=O)CC(c3ccc(C)cc3)C23C(=O)NC(=O)NC3=O)cc1` (centres undefined), the TGI in the test with DU-145 prostate, in the test on HT29 colon, in the test on MDA-MB-435, in the test on MOLT-4 leukemia, in the test on OVCAR-8 ovarian and with RPMI-8226 leukemia was greater than 100 µM each time. The TGI with SF-295 CNS, in the test with SNB-19 CNS and in the test on UO-31 renal was greater than 100 µM each time.

As to `COc1ccc(/C=C2\CN(C)Cc3c2nc(N)nc3-c2ccc(OC)cc2)cc1`, the TGI in the test with A498 renal was greater than 100 µM; in the test on HL-60(TB) leukemia, 85.2 µM; in the test with MOLT-4 leukemia, greater than 100 µM; in the test with OVCAR-8 ovarian, greater than 100 µM; in the test with RPMI-8226 leukemia, greater than 100 µM; in the test on SF-295 CNS it was greater than 100 µM. Besides, the TGI in the test with SNB-19 CNS and in the test on UO-31 renal was greater than 100 µM each time.

As to `CO/C(=N\N=C\c1cc(OC)ccc1OC)c1ccncc1`, the TGI with A498 renal, in the test on HL-60(TB) leukemia, in the test on MOLT-4 leukemia, in the test on OVCAR-8 ovarian, in the test with RPMI-8226 leukemia and in the test on SF-295 CNS was greater than 10 µM in each case. Also, the TGI in the test on SNB-19 CNS and in the test on UO-31 renal was greater than 10 µM in each case.

As for `CC1=NN(C(=O)CSc2nnc(SCC(=O)N3N=C(C)CC3(O)c3ccccc3)s2)C(O)(c2ccccc2)C1` (centres undefined), the TGI with A498 renal, in the test on DU-145 prostate, in the test on MDA-MB-435, with MOLT-4 leukemia, in the test with OVCAR-8 ovarian and in the test with RPMI-8226 leukemia was greater than 100 µM in each case. The TGI in the test with SF-295 CNS, with SNB-19 CNS and in the test with UO-31 renal was greater than 100 µM each time.
